Laboratory results from US9345682B2, “Inhibition of STAT3 signal transduction for human cancer therapy” (University of South Florida, priority 1999, dated 2016).
One block for each compound: values may come before it.

Key:
p38, JNK1/2, ERK1/2 = experiment: Western blot of phosphorylated (activated) MAPKs in Src-transformed fibroblasts; format: cell-based, mouse
Protocol: (§1) Whole-cell lysates are prepared in boiling sodium dodecyl sulfate (SDS) sample-loading buffer in order to extract total proteins from the cytoplasm and nucleus as well as preserve the in vivo phosphorylation […]. Equivalent amounts of total cellular protein are electrophoresed on an SDS-10% polyacrylamide gel and transferred to nitrocellulose membranes. Probing of nitrocellulose membranes with primary antibodies and detection of horseradish peroxidase-conjugated secondary antibodies by enhanced chemiluminescence (Amersham) are performed as previously described (Garcia, et al., 1997, Cell Growth Differ. 8:1267-1276, Turkson, et al., 1998, Mol. Cell. Biol. 18:2545-2552, Yu, et al., 1995, Science 269:81-83). Probes used are rabbit polyclonal antibodies against […] amino acid residues (626-640) of STAT3 (Santa Cruz Biotechnology), phosphoserine-727 of STAT3 (25), active (phospho-) JNK, p38^mapk or ERKs (New England Biolabs), or total JNK, p38^mapk or ERKs (Santa Cruz Biotechnology).

STAT3 [1] = experiment: Western blot of STAT3 serine 727 phosphorylation in Src-transformed NIH 3T3 fibroblasts; format: cell-based, mouse; conditions: 6 hours
Protocol: as §1

[2] = test system: NIH 3T3/v-Ras fibroblasts; experiment: Soft-agar colony formation of NIH 3T3/v-Ras fibroblasts; format: cell-based, mouse; conditions: treated once weekly
Protocol: (§2) Colony formation assays are carried out in 6-well dishes. Each well contains 1.5 ml of 1% agarose in DMEM as the bottom layer. The top layer in each well consists of 1.5 ml of 0.5% agarose in DMEM containing 4,000 or 6,000 of NIH 3T3/v-Src or NIH 3T3/v-Ras fibroblasts, respectively. Treatment with inhibitors is initiated one day after seeding cells by adding 75-100 μl of medium with or without inhibitors and repeated once a week until formation of large colonies is evident. For quantitation, colonies are stained by adding 20 μl of 1 mg/ml iodonitrotetrazoliurn violet to each well and incubating at 37° C. overnight. Stained colonies are counted the next day.

STAT3 [3] = experiment: EMSA (M67SIE probe) of STAT3 DNA-binding activity in NIH 3T3 cells expressing v-Src; format: cell-based, mouse; conditions: v-Src-expressing NIH 3T3 cells, 6 hours
Protocol: (§3) In the case of stable NIH 3T3/v-Src/TKS3 clones, cells are treated with inhibitors or DMSO for 6 hours prior to preparing cytosolic extracts. For transient expression assays, cytosolic extracts are prepared from cells at 48 hours posttransfection as previously described (Turkson, et al., 1998, Mol. Cell. Biol. 18:2545-2552). Briefly, after two washes with PBS and equilibration for 5 min with 0.5 ml of PBS-0.5 mM EDTA, cells are scraped off the dishes and the cell pellet is obtained by centrifugation (4,500×g, 2 min, 4° C.). Cells are resuspended in 0.4 ml of low-salt HEPES buffer (10 mM HEPES [pH 7.8], 10 mM KCl, 0.1 mM EGTA, 0.1 mM EDTA, 1 mM phenylmethylsulfonyl fluoride, and 1 mM dithiothreitol) for 15 min, lysed by the addition of 20 μl of 10% Nonidet P-40 (NP-40), and centrifuged (10,000×g, 30 s, 4° C.) to obtain the cytosolic supernatant, which is used for luciferase assays (Promega) measured with a luminometer and for β-Gal activity detection by colorimetric assay at A570. As an internal control for transient transfection efficiency, results are normalized to β-Gal activity. […]

[4] = test system: NIH 3T3/v-Src fibroblasts; experiment: Soft-agar colony formation of NIH 3T3/v-Src fibroblasts; format: cell-based, mouse; conditions: treated once weekly
Protocol: as §2

STAT3 [5] = experiment: STAT3-specific luciferase reporter (pLucTKS3) induced by v-Src in NIH 3T3 fibroblasts; format: cell-based, mouse; conditions: for constitutive induction of the STAT3-dependent luciferase reporter: NIH 3T3/v-Src/TKS3 cells stably expressing reporter, 6 hours; for STAT3-specific luciferase reporter induction by v-Src: transiently transfected NIH 3T3 cells, inhibitor for 6 h
Protocol: NIH 3T3, NIH 3T3/v-Src and NIH 3T3/v-Ras fibroblasts are grown in Dulbecco's modified Eagle's medium (DMEM) containing 5% iron-supplemented bovine calf serum (BCS). Transient transfections are carried out by the standard calcium phosphate method as previously described (Turkson, et al., 1998, Mol. Cell. Biol. 18:2545-2552). NIH 3T3 fibroblasts are seeded at 5×10^5 cells/100-mm plate in DMEM plus 5% BCS at 18 to 24 hours prior to transfection. Total DNA for transfections is typically 20 μg per plate, including 4 μg of luciferase reporter construct (pLucTKS3), 0.2 μg of β-galactosidase (β-Gal) internal control vector, and the amounts of expression vector indicated in figure legends. Transfection is terminated 15 hours later by aspirating the medium, washing the cells with phosphate-buffered saline (PBS), and adding fresh DMEM. For generation of NIH 3T3/v-Src/TKS3 cell lines stably expressing the STAT3 reporter, NIH 3T3/v-Src cells are transfected using Fugene 6 (Boehringer Mannheim) according to the supplier's protocol. The transfection mixture contains 5.5 μg total DNA per 10 cm plate, including […] of the STAT3 reporter, pLucTKS3, and 0.5 μg of pcDNA3 that carries the neomycin resistance gene. Individual G418-resistant clones are picked and characterized with regard to STAT3-dependent luciferase activities.
as §3, with “activity. For EMSA, nuclear extracts are prepared from transiently-transfected NIH 3T3 cells and volumes containing equal amounts of total protein are incubated with ^32P-labeled M67SIE oligonucleotide probe, as previously reported (Garcia, et al., 1997, Cell Growth Differ. 8:1267-1276, Yu, et al., 1995, Science 269:81-83).” for “activity.”

SH2 Domain of STAT3 = molecular target: T1, SH2 Domain of STAT3 (Homo sapiens, UniProt P40763); experiment: Phage display panning, 7-mer peptide library, on the SH2 domain of STAT3; format: binding
T1 construct: the SH2 domain of STAT3 is isolated as a target for screening 7-mer peptide phage display libraries; GST; made in house; host or cells: bacteria (E. coli)
T1 sequence (P40763 580-670 limits assumed): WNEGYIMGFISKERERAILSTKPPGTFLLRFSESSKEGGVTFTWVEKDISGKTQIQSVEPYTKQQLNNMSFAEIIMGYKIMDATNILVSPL
Description: Phage display peptide libraries are used because of two powerful features. First, phage libraries generate an enormous diversity of peptides that can be subjected to affinity selection by panning. […] These combinatorial libraries are based on random short peptide sequences fused to a coat protein of bacteriophage, herein pIII of the filamentous coliphage MI3. Panning of the peptide library using an immobilized target, herein STAT3 fusion proteins bound onto beads, is used to select for peptide sequences that bind to STAT3. […] Peptide sequences that occur at elevated frequencies are good candidates for ST4T3-specific binding peptides. […] These cyclic peptides have the advantage of reducing entropic freedom, thereby potentially increasing binding specificity and affinity relative to linear peptides. Another variation on this approach is to combine “affinity maturation” with the phage display peptide library [Scott & Smith, 1990, Science, 249:386-390].
For panning phage with the STAT3 fusion protein, 50 ul of glutathione-Sepharose beads bound to purified GST-Stat3 fusion protein are washed with phosphate buffered saline (PBS). The beads are then incubated with 10 ul of phage suspension (1.4×10^11 virions) in 200 ul final volume of PBS for 30 min at room temperature with occasional mixing. The beads are gently pelleted in a microcentrifuge, and washed 10 times with 1 ml of PBS to remove unbound phage. Background of non-specifically bound phage is reduced by a variety of methods, including pre-blocking the beads with bovine serum albumin, pre-clearing the phage library with GST-glutathione-Sepharose beads, and washing the beads with increasing salt concentrations. Bound phage virions are eluted from the beads by incubation with a molar excess of glutathione for 30 min at room temperature. A small aliquot of the phage eluate is titered and the rest is amplified on the E. coli ER2537 host strain. Following amplification, the phage are purified by polyethylene glycol (PEG) precipitation and then the titer is determined again. […]

STAT3 [6] = experiment: EMSA of constitutive STAT3 DNA-binding activity in MDA-MB-468 breast carcinoma cells; format: cell-based, human; conditions: MDA-MB-468 cells; dose-dependent
Protocol: (§4) FIG. 6: Src and JAK Inhibitors Block Growth and STAT3 Activation in Breast Carcinoma Cells. MDA-MD-468 cells are treated with inhibitors of EGF receptor (PD158780), Src (PD180970), or JAKs (AG490), and effects on cell growth (Panel A) and STAT3 DNA-binding activity (Panel B) are determined.
STAT DNA-binding activity in human breast cancer cell lines is examined by electrophoretic mobility shift assays (EMSA) (Garcia et al., 1997, Cell Growth Diff. 8:1267-1276). In these experiments, EMSAs are performed using the ^32P-labeled sis-inducible element (SIE) as a probe to detect STAT DNA-binding activity in nuclear extracts of cells. This synthetic DNA oligonucleotide probe is a high-affinity mutant of the c-fos SIE, called hSIE, that binds both STAT1 and STAT3 (Yu, et al., 1995, Science 269:81-83). […] This activation is constitutive and occurs in the absence of exogenous EGF stimulation. By contrast, STAT3 activation is not detected in any of the three cell lines derived from normal breast tissue.
(§5) The involvement of these, and other, tyrosine kinases in STAT3 activation is tested using specific inhibitors of JAK family kinases, and the EGF receptor and Src family kinases.

MDA-MB-468 cells = experiment: Cell growth of MDA-MB-468 breast carcinoma cells; format: cell-based, human
Protocol: as §4, §5

constitutive induction of the STAT3-dependent luciferase reporter (STAT3 [5]): partially | STAT3-specific luciferase reporter induction by v-Src (STAT3 [5]): significantly suppresses
Compound: COc1cccc(-c2cc(=O)c3ccccc3o2)c1N [PD98059]
basal ERKs activity (p38, JNK1/2, ERK1/2; Src-transformed fibroblasts): complete block | STAT3 serine phosphorylation (phosphoserine-727) (STAT3 [1]): blocks | colony formation of Ras-transformed fibroblasts in soft agar [2]: lack of significant effect | STAT3 DNA-binding activity induced by v-Src (STAT3 [3]): no effect | colony formation of Src-transformed cells in soft agar [4]: lack of significant effect

Compound: IQSPHFF (listed as Homo sapiens)
Frequency (out of 100 clones) (SH2 Domain of STAT3): 6%

Compound: HAIYPRN (listed as Homo sapiens)
Frequency (out of 100 clones) (SH2 Domain of STAT3): 16%

constitutive induction of the STAT3-dependent luciferase reporter (STAT3 [5]): completely | STAT3-specific luciferase reporter induction by v-Src (STAT3 [5]): significant inhibition
Compound: Oc1ccc(-c2nc(-c3ccncc3)c(-c3ccc(F)cc3)[nH]2)cc1 [SB202190]
phosphorylation of MAPK members, including p38 (p38, JNK1/2, ERK1/2; Src-transformed cells): does not significantly alter | STAT3 serine phosphorylation (phosphoserine-727) (STAT3 [1]): blocks | colony formation of Ras-transformed fibroblasts in soft agar [2]: no significant effects | STAT3 DNA-binding activity induced by v-Src (STAT3 [3]): no effect | colony formation of Src-transformed cells in soft agar [4]: completely blocks

Compound: CNc1cc2c(Nc3cccc(Br)c3)ncnc2cn1 [PD158780]
constitutive STAT3 activation (STAT3 DNA-binding activity) (STAT3 [6]): does not block | cell growth (MDA-MB-468 cells): not by the EGF receptor inhibitor

Compound: ASTLPKA (listed as Homo sapiens)
Frequency (out of 100 clones) (SH2 Domain of STAT3): 7%

Compound: Cc1cc(Nc2ncc3cc(-c4c(Cl)cccc4Cl)c(=O)n(C)c3n2)ccc1F [PD180970]
constitutive STAT3 activation (STAT3 DNA-binding activity) (STAT3 [6]): effectively blocked | cell growth (MDA-MB-468 cells): inhibition of cell growth
